Reference: patent US8415469B2, “Compounds and methods for kinase modulation, and indications therefor” (Plexxikon Inc., priority 2005, dated 2013)

Tests used:
Type in all cases: biochemical
Abl = target: T1, Abl (Homo sapiens, UniProt P00519); test: AlphaScreen kinase assay, Abl; details: read-out: activity toward kinase Abl, IC50
T1 construct: P1121. pET-SPEC BI-PTP Abl G227-V515-X; His6 (N); made in house; host or cells: E. coli (PTP1B co-expressed)
T1 sequence (P00519 with tags, fused parts or gaps): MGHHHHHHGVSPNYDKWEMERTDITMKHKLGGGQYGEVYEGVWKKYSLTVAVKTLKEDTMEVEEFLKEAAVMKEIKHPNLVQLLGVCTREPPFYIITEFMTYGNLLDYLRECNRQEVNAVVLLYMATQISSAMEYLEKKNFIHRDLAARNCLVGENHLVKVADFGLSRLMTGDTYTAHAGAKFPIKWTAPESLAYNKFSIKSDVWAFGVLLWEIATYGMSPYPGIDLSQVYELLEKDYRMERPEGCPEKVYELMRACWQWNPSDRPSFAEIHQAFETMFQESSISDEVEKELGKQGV
How it was run: (§1)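 Uses phospho-specific antibody on acceptor beads plus streptavidin donor beads capturing biotinylated peptide substrate; singlet oxygen from donor excites nearby acceptor. Inhibitors tested in 8-point, 1:3 titrations starting from 20 mM DMSO solutions.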

Zap70 = target: T2, Zap70 (Homo sapiens, UniProt P43403); test: AlphaScreen kinase assay, Zap70; details: read-out: IC50, activity toward kinase Zap70
T2 construct: P1868.pFastBac1 ZAP70 D327-G606 HIS, WT; His7 (HHHHHHH) (C); made in house
T2 sequence (P43403 with tags, fused parts or gaps): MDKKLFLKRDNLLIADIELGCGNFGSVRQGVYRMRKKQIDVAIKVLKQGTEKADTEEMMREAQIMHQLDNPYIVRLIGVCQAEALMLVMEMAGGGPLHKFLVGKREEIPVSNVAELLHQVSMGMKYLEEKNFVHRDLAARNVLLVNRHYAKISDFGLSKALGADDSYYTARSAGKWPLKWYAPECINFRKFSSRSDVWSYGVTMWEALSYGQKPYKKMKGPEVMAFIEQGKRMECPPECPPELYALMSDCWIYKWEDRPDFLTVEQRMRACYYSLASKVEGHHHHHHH
How it was run: as §1

Fak = target: T3, Fak (Homo sapiens, UniProt Q05397); test: AlphaScreen kinase assay, Fak; details: read-out: IC50, activity toward kinase Fak
T3 construct: P1358.pFastBacHtb FAK S411-Q686-X; His6 with pFastBacHTb leader (TEV site) (N); made in house; host or cells: Sf9 (baculovirus)

Ret = target: T4, Ret (Homo sapiens, UniProt P07949); test: AlphaScreen kinase assay, Ret; details: read-out: IC50, activity toward kinase Ret
T4 construct: P1378.pET-SF BI-PTP RET H661-R1012 HIS; made in house
T4 sequence (P07949 with tags, fused parts or gaps): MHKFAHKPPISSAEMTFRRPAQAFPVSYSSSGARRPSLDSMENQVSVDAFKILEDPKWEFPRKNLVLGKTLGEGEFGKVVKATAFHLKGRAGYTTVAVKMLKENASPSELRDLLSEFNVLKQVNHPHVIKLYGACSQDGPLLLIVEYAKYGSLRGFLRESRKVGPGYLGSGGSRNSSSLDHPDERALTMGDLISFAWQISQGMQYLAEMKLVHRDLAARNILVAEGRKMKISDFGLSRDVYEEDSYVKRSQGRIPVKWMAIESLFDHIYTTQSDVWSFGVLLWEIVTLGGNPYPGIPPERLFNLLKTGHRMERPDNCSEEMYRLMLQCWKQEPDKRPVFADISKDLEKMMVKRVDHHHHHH

FGFR1 = target: T5, FGFR1 (Homo sapiens, UniProt P11362, C488A/C584S); test: AlphaScreen kinase assay, FGFR1; details: read-out: IC50, activity toward kinase FGFR
T5 construct: P1351.pET N6 BI-PTP FGFR A458-E765-X C488A, C584S; made in house; host or cells: E. coli (PTP1B co-expressed)

Kdr = target: T6, Kdr (Homo sapiens, UniProt P35968); test: Z'-Lyte FRET kinase assay (Invitrogen), Kdr; details: read-out: IC50, activity toward kinase Kdr
T6 construct: purchased Invitrogen (assay run by Invitrogen)

Pyk2 = target: T7, Pyk2 (Homo sapiens, UniProt Q14289); test: AlphaScreen kinase assay, Pyk2; details: read-out: IC50, activity toward kinase Pyk2
T7 construct: purchased Upstate Biotechnology

Kit = target: T8, Kit (Homo sapiens, UniProt P10721); test: AlphaScreen kinase assay, Kit; details: read-out: IC50, activity toward kinase Kit
T8 construct: P1332.N6 BI PTP KIT M552-K948-X COD; His6 (N); made in house; host or cells: E. coli (PTP1B co-expressed)

Erk2 = target: T9, Erk2 (Homo sapiens, UniProt P28482); test: AlphaScreen kinase assay, Erk2; details: read-out: IC50, activity toward kinase Erk2
T9 construct: P4227.pET15S ERK2/MEK1DD; His6 with thrombin site (N); made in house
Description: AlphaScreen assay was used to screen additional kinases. The assay is similarly dependent on the phosphorylation of a peptide substrate. In this assay, an antibody that recognizes phosphorylated substrate is bound to an acceptor bead. The peptide substrate is attached to biotin, which binds to a donor head that contains streptavidin. Thus phosphorylated substrate is bound by antibody and streptavidin, bringing the donor and acceptor heads into close proximity when kinase is not inhibited. The donor produces singlet oxygen which results in emission from the acceptor when they are in close proximity. Conversely, when kinase is inhibited, the donor and acceptor beads are not associated and the emission from the acceptor is reduced.
AlphaScreen assays were done using compounds dissolved in DMSO to a concentration of 20 mM. The compounds were diluted accordingly to the desired final concentrations in each sample well, using 1:3 serial dilution for a total of 8 concentration points.

Gsk3β = Gsk3β (Homo sapiens, UniProt P49841); test: AlphaScreen kinase assay, Gsk3β; details: read-out: IC50, activity toward kinase Gsk3β
How it was run: as §1

Stk6 = target: T10, Stk6 (Homo sapiens, UniProt O14965); test: Z'-Lyte FRET kinase assay (Invitrogen), Stk6; details: read-out: IC50, activity toward kinase Stk6
T10 construct: purchased Invitrogen (Carlsbad, Calif.), screening service
T10 sequence (O14965 1-403): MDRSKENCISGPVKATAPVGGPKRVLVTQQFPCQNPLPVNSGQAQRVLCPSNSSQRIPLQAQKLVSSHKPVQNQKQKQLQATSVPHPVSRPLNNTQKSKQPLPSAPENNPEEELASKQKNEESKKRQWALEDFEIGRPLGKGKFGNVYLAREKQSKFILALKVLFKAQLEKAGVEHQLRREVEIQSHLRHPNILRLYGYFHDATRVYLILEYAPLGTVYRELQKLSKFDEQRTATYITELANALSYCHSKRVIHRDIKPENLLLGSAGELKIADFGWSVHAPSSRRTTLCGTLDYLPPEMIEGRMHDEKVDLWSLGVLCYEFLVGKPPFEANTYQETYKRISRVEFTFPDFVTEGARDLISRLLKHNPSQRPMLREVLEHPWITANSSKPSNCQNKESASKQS

Akt3 = Akt3 (Homo sapiens, UniProt Q9Y243); test: AlphaScreen kinase assay, Akt3; details: read-out: IC50, activity toward kinase Akt3
How it was run: as §1

Flt1 = target: T11, Flt1 (Homo sapiens, UniProt P17948); test: AlphaScreen kinase assay, Flt1; details: read-out: IC50, activity toward kinase Flt1
T11 construct: P1826.pETN6 BI-PTP FLT1 M799-D1165-X WT; His6 (N); made in house; host or cells: E. coli (PTP1B co-expressed)
T11 sequence (P17948 with tags, fused parts or gaps): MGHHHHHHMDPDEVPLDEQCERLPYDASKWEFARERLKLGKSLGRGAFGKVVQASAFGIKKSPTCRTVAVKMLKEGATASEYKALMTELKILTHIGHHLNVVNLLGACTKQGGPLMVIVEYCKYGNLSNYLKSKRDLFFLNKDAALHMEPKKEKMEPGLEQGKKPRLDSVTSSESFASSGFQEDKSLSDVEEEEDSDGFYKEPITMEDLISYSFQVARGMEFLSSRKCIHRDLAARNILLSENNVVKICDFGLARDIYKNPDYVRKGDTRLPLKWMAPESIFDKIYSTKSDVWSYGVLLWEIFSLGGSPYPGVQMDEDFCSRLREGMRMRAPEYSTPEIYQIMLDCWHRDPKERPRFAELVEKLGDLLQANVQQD

Plk1 = Plk1 (Homo sapiens, UniProt P53350); test: AlphaScreen kinase assay, Plk1; details: read-out: IC50, activity toward kinase Plk1
How it was run: as §1

IGF1R = IGF1R (Homo sapiens, UniProt P08069); test: AlphaScreen kinase assay, IGF1R; details: read-out: IC50, activity toward kinase IGF1R
Description: AlphaScreen assays were done using compounds dissolved in DMSO to a concentration of 20 mM. The compounds were diluted accordingly to the desired final concentrations in each sample well, using 1:3 serial dilution for a total of 8 concentration points. Plates were prepared such that each kinase reaction is 20 μl in 1× kinase buffer, 5% DMSO and 10 μM ATP. After incubation of the kinase reaction for 1 hour at room temperature, 5 μl of donor beads in stop buffer (50 mM EDTA in 1× kinase buffer) was added, the sample was mixed and incubated for 20 minutes at room temperature before adding 5 μl of acceptor beads in stop buffer. The samples were incubated for 60 minutes at room temperature and the signal per well was read on AlphaQuest reader.

Flt4 = target: T12, Flt4 (Homo sapiens, UniProt P35916); test: AlphaScreen kinase assay, Flt4; details: read-out: IC50, activity toward kinase Flt4
T12 construct: purchased ProQinase GmbH (Freiburg, Germany)
How it was run: as §1

Met = target: T13, Met (Homo sapiens, UniProt P08581); test: AlphaScreen kinase assay, Met; details: read-out: IC50, activity toward kinase Met
T13 construct: P1818.pETN6 BI-PTP MET G1056-G1364-X WT; His6 (N); made in house; host or cells: E. coli (PTP1B co-expressed)
How it was run: as §1

B-Raf V600E = target: T14, B-Raf V600E (Homo sapiens, UniProt P15056, V600E); test: AlphaScreen kinase assay, B-Raf V600E; details: read-out: IC50, activity toward kinase B-Raf V600E
T14 construct: P4254. pFastBacBD-CDC37 BRAF D437-K722-X, V600E; His6 with pFastBac HT leader (TEV site) (N); made in house; host or cells: Sf9 (baculovirus; chaperone CDC37 co-expressed)

Src = target: T15, Src (Homo sapiens, UniProt P12931); test: AlphaScreen kinase assay, Src; details: read-out: IC50, activity toward kinase Src
T15 construct: P1144. pET-N6 BI-PTP SRC V86-L536-X; made in house

B-Raf = target: T16, B-Raf (Homo sapiens, UniProt P15056); test: AlphaScreen kinase assay, B-Raf; details: read-out: IC50, activity toward kinase B-Raf
T16 construct: purchased Upstate Biotechnology

Jnk3 = target: T17, Jnk3 (Homo sapiens, UniProt P53779); test: AlphaScreen kinase assay, Jnk3; details: read-out: IC50, activity toward kinase Jnk3
T17 construct: purchased Upstate Biotechnology

Measured: IC50

T8 sequence (P10721 with tags, fused parts or gaps): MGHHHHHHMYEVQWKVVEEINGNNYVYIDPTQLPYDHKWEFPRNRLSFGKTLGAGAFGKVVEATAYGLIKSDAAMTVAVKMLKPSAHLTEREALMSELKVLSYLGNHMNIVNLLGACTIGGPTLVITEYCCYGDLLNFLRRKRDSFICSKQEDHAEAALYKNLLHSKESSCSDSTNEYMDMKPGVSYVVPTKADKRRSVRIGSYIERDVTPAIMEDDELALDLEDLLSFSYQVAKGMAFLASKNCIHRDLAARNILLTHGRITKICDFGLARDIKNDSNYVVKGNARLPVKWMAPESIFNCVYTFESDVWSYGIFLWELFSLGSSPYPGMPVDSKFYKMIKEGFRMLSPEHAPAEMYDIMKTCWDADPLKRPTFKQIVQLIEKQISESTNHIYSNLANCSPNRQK
T9 sequence (P28482 with tags, fused parts or gaps): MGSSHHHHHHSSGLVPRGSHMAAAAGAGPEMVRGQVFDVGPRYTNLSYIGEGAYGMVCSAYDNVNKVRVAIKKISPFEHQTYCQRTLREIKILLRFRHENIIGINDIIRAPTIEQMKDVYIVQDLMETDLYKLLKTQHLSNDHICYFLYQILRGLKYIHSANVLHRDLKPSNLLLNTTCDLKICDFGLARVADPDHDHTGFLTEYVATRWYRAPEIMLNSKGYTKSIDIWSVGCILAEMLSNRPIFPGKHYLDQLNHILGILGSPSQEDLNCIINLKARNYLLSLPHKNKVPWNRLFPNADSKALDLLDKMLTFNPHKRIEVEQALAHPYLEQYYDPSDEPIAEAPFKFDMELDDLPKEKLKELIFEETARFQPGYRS
T6 sequence (P35968 20-1356): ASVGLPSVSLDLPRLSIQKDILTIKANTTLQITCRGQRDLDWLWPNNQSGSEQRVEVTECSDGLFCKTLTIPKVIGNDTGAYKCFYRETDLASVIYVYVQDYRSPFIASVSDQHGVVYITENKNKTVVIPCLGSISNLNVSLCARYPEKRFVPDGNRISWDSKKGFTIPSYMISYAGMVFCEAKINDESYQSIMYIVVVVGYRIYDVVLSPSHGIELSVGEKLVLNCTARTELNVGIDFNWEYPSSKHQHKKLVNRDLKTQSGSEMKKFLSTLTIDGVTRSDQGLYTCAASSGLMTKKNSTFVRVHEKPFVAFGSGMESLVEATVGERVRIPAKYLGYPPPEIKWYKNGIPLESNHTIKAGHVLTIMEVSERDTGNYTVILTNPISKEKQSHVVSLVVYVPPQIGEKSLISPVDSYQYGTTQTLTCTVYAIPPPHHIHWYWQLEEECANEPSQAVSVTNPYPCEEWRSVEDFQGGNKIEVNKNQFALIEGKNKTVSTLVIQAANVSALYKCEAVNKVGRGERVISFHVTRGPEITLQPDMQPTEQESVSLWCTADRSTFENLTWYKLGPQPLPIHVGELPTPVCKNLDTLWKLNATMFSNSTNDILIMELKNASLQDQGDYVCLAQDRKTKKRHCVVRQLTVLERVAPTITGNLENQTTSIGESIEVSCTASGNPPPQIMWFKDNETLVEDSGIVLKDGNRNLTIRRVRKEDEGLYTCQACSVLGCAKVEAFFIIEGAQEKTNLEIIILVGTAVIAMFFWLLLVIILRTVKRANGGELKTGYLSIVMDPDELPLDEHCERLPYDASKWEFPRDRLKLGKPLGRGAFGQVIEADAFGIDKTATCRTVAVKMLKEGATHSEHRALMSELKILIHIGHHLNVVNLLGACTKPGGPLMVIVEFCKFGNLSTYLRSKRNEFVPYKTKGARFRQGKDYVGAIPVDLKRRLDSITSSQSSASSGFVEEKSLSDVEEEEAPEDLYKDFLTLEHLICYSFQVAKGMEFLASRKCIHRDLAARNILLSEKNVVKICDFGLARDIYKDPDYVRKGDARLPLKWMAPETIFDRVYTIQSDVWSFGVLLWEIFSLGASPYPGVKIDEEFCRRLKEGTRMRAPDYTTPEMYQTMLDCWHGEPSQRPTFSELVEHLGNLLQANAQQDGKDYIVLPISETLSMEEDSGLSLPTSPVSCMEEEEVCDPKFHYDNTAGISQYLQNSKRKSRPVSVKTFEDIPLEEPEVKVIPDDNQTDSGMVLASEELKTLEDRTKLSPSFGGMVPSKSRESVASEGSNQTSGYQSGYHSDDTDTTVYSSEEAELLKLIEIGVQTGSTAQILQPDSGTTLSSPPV
T7 sequence (Q14289 whole entry): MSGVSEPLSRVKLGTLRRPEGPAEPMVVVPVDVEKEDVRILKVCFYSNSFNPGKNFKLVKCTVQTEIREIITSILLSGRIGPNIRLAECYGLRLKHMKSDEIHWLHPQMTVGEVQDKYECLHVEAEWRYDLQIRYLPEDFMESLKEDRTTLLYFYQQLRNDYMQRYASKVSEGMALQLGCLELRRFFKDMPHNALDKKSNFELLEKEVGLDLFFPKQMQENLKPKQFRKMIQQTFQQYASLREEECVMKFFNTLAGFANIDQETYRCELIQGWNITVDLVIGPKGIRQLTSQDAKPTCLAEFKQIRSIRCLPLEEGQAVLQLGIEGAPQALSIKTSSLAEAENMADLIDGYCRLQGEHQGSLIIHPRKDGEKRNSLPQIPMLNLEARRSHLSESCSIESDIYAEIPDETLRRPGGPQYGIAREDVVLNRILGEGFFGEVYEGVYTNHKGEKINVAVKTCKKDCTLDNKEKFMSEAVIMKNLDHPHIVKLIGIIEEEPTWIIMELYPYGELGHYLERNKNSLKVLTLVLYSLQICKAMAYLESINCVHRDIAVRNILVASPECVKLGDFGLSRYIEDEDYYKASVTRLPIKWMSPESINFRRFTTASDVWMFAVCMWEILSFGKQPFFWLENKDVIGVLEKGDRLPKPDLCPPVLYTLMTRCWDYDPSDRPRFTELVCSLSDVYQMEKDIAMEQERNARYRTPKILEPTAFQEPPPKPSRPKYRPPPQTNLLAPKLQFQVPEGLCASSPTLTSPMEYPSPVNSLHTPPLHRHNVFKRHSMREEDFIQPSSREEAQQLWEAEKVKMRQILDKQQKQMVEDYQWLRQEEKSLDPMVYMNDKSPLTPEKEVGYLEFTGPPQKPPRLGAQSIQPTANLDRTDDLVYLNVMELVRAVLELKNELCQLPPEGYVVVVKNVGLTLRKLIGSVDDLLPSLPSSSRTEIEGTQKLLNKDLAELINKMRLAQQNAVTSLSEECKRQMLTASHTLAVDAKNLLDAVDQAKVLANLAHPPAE
T5 sequence (P11362 458-765 C488A/C584S): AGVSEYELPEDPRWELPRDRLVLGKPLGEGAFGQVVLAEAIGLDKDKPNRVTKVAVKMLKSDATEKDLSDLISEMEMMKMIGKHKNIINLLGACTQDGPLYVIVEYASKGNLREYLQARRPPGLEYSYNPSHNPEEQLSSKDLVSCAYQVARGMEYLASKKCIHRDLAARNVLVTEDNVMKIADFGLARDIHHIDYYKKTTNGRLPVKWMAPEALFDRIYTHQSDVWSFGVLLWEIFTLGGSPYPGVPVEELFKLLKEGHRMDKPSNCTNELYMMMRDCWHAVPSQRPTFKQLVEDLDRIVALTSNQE
T12 sequence (P35916 25-1363): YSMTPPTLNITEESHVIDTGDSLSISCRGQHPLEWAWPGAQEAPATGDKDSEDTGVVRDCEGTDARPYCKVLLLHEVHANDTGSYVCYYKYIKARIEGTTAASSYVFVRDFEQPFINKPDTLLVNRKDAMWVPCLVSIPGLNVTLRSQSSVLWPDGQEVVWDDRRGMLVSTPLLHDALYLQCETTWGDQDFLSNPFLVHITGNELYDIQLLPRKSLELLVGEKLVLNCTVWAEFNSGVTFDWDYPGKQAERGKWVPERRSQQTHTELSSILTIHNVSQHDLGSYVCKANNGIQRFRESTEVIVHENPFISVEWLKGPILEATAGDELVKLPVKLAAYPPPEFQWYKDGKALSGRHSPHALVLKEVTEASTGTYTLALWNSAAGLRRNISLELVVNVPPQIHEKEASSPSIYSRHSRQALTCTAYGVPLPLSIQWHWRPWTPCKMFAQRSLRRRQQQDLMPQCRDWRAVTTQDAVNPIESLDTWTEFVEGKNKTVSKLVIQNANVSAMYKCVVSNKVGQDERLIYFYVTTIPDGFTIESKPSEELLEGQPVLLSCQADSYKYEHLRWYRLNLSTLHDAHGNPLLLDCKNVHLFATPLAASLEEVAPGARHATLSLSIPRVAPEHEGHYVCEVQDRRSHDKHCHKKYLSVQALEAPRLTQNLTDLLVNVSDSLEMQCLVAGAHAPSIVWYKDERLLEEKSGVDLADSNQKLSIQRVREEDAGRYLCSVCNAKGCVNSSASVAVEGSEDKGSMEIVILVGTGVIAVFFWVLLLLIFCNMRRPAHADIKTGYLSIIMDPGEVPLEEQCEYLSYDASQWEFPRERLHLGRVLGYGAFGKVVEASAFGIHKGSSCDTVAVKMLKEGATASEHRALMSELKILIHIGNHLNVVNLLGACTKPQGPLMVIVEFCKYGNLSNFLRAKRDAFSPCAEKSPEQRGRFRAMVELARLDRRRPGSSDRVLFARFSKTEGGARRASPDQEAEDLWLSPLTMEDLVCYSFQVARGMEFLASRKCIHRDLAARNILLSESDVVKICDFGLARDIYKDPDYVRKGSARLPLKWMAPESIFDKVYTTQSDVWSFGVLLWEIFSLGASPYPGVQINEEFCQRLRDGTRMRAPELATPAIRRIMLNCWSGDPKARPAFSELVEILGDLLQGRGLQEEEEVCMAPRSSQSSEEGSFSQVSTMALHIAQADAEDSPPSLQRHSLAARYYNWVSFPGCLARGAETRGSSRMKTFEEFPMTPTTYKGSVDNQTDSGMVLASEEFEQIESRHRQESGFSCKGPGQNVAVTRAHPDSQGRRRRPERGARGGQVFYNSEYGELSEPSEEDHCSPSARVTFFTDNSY
T14 sequence (P15056 with tags, fused parts or gaps V600E): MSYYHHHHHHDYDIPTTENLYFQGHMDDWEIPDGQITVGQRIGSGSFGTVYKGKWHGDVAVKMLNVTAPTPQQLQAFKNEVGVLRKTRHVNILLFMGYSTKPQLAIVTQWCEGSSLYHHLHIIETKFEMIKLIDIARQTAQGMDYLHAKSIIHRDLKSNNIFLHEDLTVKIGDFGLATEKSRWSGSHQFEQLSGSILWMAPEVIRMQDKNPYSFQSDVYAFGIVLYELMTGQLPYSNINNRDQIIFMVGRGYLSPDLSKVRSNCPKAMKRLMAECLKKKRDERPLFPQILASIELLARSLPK

O=S(=O)(NCc1c[nH]c2ncccc12)c1ccc(N2CCOCC2)nc1 [Compound P-0611]
≤ 10 µM: Abl | Zap70 | Fak | Ret | FGFR1 | Kdr | Pyk2 | Kit | Erk2

Cc1cccc(-c2ccnc3[nH]cc(CNS(=O)(=O)C(F)(F)F)c23)c1 [Compound P-0154]
≤ 10 µM: Gsk3β | Stk6 | Akt3 | Flt1 | Plk1 | Kit | IGF1R | Erk2

O=S(=O)(NCc1c[nH]c2ncccc12)c1cc(Cl)c(Cl)s1 [Compound P-0550]
not listed: Fak | Gsk3β | Stk6 | Akt3 | Plk1 | IGF1R
≤ 10 µM: all other assays above
